Experimental data taken from ChEMBL document CHEMBL2380302, “Synthesis of 3-O-propargylated betulinic acid and its 1,2,3-triazoles as potential apoptotic agents” (Eur J Med Chem, 2013).

Legend:
MCF7 [1] = experiment: Cytotoxicity against human MCF7 cells at 50 uM after 48 hrs by SRB assay; type: functional; settings: MCF7, 48 h, read-out: GI
DU-145 [2] = experiment: Cytotoxicity against human DU145 cells at 30 uM after 48 hrs by SRB assay; type: functional; settings: DU-145, 48 h, read-out: GI
SF-295 [3] = experiment: Cytotoxicity against human SF295 cells after 48 hrs by SRB assay; type: functional, cell-based; settings: SF-295, 48 h
SF-295 [4] = experiment: Cytotoxicity against human SF295 cells at 10 uM after 48 hrs by SRB assay; type: functional; settings: SF-295, 48 h, read-out: GI
HCT-15 [5] = experiment: Cytotoxicity against human HCT15 cells at 30 uM after 48 hrs by SRB assay; type: functional; settings: HCT-15, 48 h, read-out: GI
HEp-2 [6] = experiment: Cytotoxicity against human Hep2 cells at 30 uM after 48 hrs by SRB assay; type: functional; settings: HEp-2, 48 h, read-out: GI
THP-1 [7] = experiment: Cytotoxicity against human THP1 cells at 10 uM after 48 hrs by SRB assay; type: functional; settings: THP-1, 48 h, read-out: GI
A549 [8] = experiment: Cytotoxicity against human A549 cells at 30 uM after 48 hrs by SRB assay; type: functional; settings: A549, 48 h, read-out: GI
DU-145 [9] = experiment: Cytotoxicity against human DU145 cells after 48 hrs by SRB assay; type: functional, cell-based; settings: DU-145, 48 h
HL-60 [10] = experiment: Cytotoxicity against human HL60 cells after 48 hrs by SRB assay; type: functional, cell-based; settings: HL-60, 48 h
HL-60 [11] = experiment: Cytotoxicity against human HL60 cells at 10 uM after 48 hrs by SRB assay; type: functional; settings: HL-60, 48 h, read-out: GI
A549 [12] = experiment: Cytotoxicity against human A549 cells at 10 uM after 48 hrs by SRB assay; type: functional; settings: A549, 48 h, read-out: GI
HCT-15 [13] = experiment: Cytotoxicity against human HCT15 cells after 48 hrs by SRB assay; type: functional, cell-based; settings: HCT-15, 48 h
MCF7 [14] = experiment: Cytotoxicity against human MCF7 cells after 48 hrs by SRB assay; type: functional, cell-based; settings: MCF7, 48 h
SF-295 [15] = experiment: Cytotoxicity against human SF295 cells at 50 uM after 48 hrs by SRB assay; type: functional; settings: SF-295, 48 h, read-out: GI
THP-1 [16] = experiment: Cytotoxicity against human THP1 cells after 48 hrs by SRB assay; type: functional, cell-based; settings: THP-1, 48 h
HEp-2 [17] = experiment: Cytotoxicity against human Hep2 cells after 48 hrs by SRB assay; type: functional, cell-based; settings: HEp-2, 48 h
DU-145 [18] = experiment: Cytotoxicity against human DU145 cells at 10 uM after 48 hrs by SRB assay; type: functional; settings: DU-145, 48 h, read-out: GI
PC-3 [19] = experiment: Cytotoxicity against human PC3 cells after 48 hrs by SRB assay; type: functional, cell-based; settings: PC-3, 48 h
DU-145 [20] = experiment: Cytotoxicity against human DU145 cells at 50 uM after 48 hrs by SRB assay; type: functional; settings: DU-145, 48 h, read-out: GI
HEp-2 [21] = experiment: Cytotoxicity against human Hep2 cells at 50 uM after 48 hrs by SRB assay; type: functional; settings: HEp-2, 48 h, read-out: GI
MCF7 [22] = experiment: Cytotoxicity against human MCF7 cells at 30 uM after 48 hrs by SRB assay; type: functional; settings: MCF7, 48 h, read-out: GI
HL-60 [23] = experiment: Cytotoxicity against human HL60 cells at 30 uM after 48 hrs by SRB assay; type: functional; settings: HL-60, 48 h, read-out: GI
THP-1 [24] = experiment: Cytotoxicity against human THP1 cells at 50 uM after 48 hrs by SRB assay; type: functional; settings: THP-1, 48 h, read-out: GI
PC-3 [25] = experiment: Cytotoxicity against human PC3 cells at 10 uM after 48 hrs by SRB assay; type: functional; settings: PC-3, 48 h, read-out: GI
HL-60 [26] = experiment: Cytotoxicity against human HL60 cells at 50 uM after 48 hrs by SRB assay; type: functional; settings: HL-60, 48 h, read-out: GI
THP-1 [27] = experiment: Cytotoxicity against human THP1 cells at 30 uM after 48 hrs by SRB assay; type: functional; settings: THP-1, 48 h, read-out: GI
MCF7 [28] = experiment: Cytotoxicity against human MCF7 cells at 10 uM after 48 hrs by SRB assay; type: functional; settings: MCF7, 48 h, read-out: GI
PC-3 [29] = experiment: Cytotoxicity against human PC3 cells at 50 uM after 48 hrs by SRB assay; type: functional; settings: PC-3, 48 h, read-out: GI
A549 [30] = experiment: Cytotoxicity against human A549 cells after 48 hrs by SRB assay; type: functional, cell-based; settings: A549, 48 h
SF-295 [31] = experiment: Cytotoxicity against human SF295 cells at 30 uM after 48 hrs by SRB assay; type: functional; settings: SF-295, 48 h, read-out: GI
HCT-15 [32] = experiment: Cytotoxicity against human HCT15 cells at 50 uM after 48 hrs by SRB assay; type: functional; settings: HCT-15, 48 h, read-out: GI
HCT-15 [33] = experiment: Cytotoxicity against human HCT15 cells at 10 uM after 48 hrs by SRB assay; type: functional; settings: HCT-15, 48 h, read-out: GI
A549 [34] = experiment: Cytotoxicity against human A549 cells at 50 uM after 48 hrs by SRB assay; type: functional; settings: A549, 48 h, read-out: GI
HEp-2 [35] = experiment: Cytotoxicity against human Hep2 cells at 10 uM after 48 hrs by SRB assay; type: functional; settings: HEp-2, 48 h, read-out: GI
PC-3 [36] = experiment: Cytotoxicity against human PC3 cells at 30 uM after 48 hrs by SRB assay; type: functional; settings: PC-3, 48 h, read-out: GI

`C=C(C)[C@@H]1CC[C@]2(C(=O)O)CC[C@]3(C)[C@H](CC[C@@H]4[C@@]5(C)CC[C@H](OCc6cn(C7O[C@H](COC(C)=O)[C@@H](OC(C)=O)[C@H](OC(C)=O)[C@H]7OC(C)=O)nn6)C(C)(C)[C@@H]5CC[C@]43C)[C@@H]12` (some centres not stated) was tested, and the inhibition of growth at 50 µM (MCF7 [1]) was 32%, the inhibition of growth at 30 µM (DU-145 [2]) was 4% and the IC50 (SF-295 [3]) was > 50 µM. It also gave an inhibition of growth at 10 µM (SF-295 [4]) of 8%, an inhibition of growth at 30 µM (HCT-15 [5]) of 54% and an inhibition of growth at 30 µM (HEp-2 [6]) of 39%. The inhibition of growth at 10 µM (THP-1 [7]) was 44%, the inhibition of growth at 30 µM (A549 [8]) was 20% and the IC50 (DU-145 [9]) was > 50 µM. For the same compound, the IC50 (HL-60 [10]) was 8 µM, the inhibition of growth at 10 µM (HL-60 [11]) was 52% and the inhibition of growth at 10 µM (A549 [12]) was 5%. The IC50 (HCT-15 [13]) was 27 µM, the IC50 (MCF7 [14]) was > 50 µM and the inhibition of growth at 50 µM (SF-295 [15]) was 5%. The IC50 (THP-1 [16]) was 20 µM, the IC50 (HEp-2 [17]) was > 50 µM and the inhibition of growth at 10 µM (DU-145 [18]) was 7%. For the same compound, the IC50 (PC-3 [19]) was > 50 µM, the inhibition of growth at 50 µM (DU-145 [20]) was 8% and the inhibition of growth at 50 µM (HEp-2 [21]) was 44%. It also gave an inhibition of growth at 30 µM (MCF7 [22]) of 15%, an inhibition of growth at 30 µM (HL-60 [23]) of 63% and an inhibition of growth at 50 µM (THP-1 [24]) of 76%. For the same compound, the inhibition of growth at 10 µM (PC-3 [25]) was 8%, the inhibition of growth at 50 µM (HL-60 [26]) was 80% and the inhibition of growth at 30 µM (THP-1 [27]) was 58%. For the same compound, the inhibition of growth at 10 µM (MCF7 [28]) was 8%, the inhibition of growth at 50 µM (PC-3 [29]) was 11% and the IC50 (A549 [30]) was > 50 µM. The inhibition of growth at 30 µM (SF-295 [31]) was 5%, the inhibition of growth at 50 µM (HCT-15 [32]) was 62% and the inhibition of growth at 10 µM (HCT-15 [33]) was 39%. For the same compound, the inhibition of growth at 50 µM (A549 [34]) was 43%, the inhibition of growth at 10 µM (HEp-2 [35]) was 24% and the inhibition of growth at 30 µM (PC-3 [36]) was 7%.

`C=C(C)[C@@H]1CC[C@]2(C(=O)O)CC[C@]3(C)[C@H](CC[C@@H]4[C@@]5(C)CC[C@H](OCc6cn(-c7ccc(Cl)cc7)nn6)C(C)(C)[C@@H]5CC[C@]43C)[C@@H]12` was tested, and the inhibition of growth at 50 µM (MCF7 [1]) was 80%, the inhibition of growth at 30 µM (DU-145 [2]) was 43% and the IC50 (SF-295 [3]) was > 50 µM. It also gave an inhibition of growth at 10 µM (SF-295 [4]) of 5%, an inhibition of growth at 30 µM (HCT-15 [5]) of 53% and an inhibition of growth at 30 µM (HEp-2 [6]) of 43%. It also gave an inhibition of growth at 10 µM (THP-1 [7]) of 50%, an inhibition of growth at 30 µM (A549 [8]) of 59% and an IC50 (DU-145 [9]) of 34 µM. For the same compound, the IC50 (HL-60 [10]) was 5.5 µM, the inhibition of growth at 10 µM (HL-60 [11]) was 61% and the inhibition of growth at 10 µM (A549 [12]) was 52%. For the same compound, the IC50 (HCT-15 [13]) was 13 µM, the IC50 (MCF7 [14]) was 15 µM and the inhibition of growth at 50 µM (SF-295 [15]) was 32%. For the same compound, the IC50 (THP-1 [16]) was 10 µM, the IC50 (HEp-2 [17]) was 44 µM and the inhibition of growth at 10 µM (DU-145 [18]) was 28%. It also gave an IC50 (PC-3 [19]) of 43 µM, an inhibition of growth at 50 µM (DU-145 [20]) of 55% and an inhibition of growth at 50 µM (HEp-2 [21]) of 55%. For the same compound, the inhibition of growth at 30 µM (MCF7 [22]) was 63%, the inhibition of growth at 30 µM (HL-60 [23]) was 74% and the inhibition of growth at 50 µM (THP-1 [24]) was 94%. For the same compound, the inhibition of growth at 10 µM (PC-3 [25]) was 22%, the inhibition of growth at 50 µM (HL-60 [26]) was 96% and the inhibition of growth at 30 µM (THP-1 [27]) was 69%. For the same compound, the inhibition of growth at 10 µM (MCF7 [28]) was 42%, the inhibition of growth at 50 µM (PC-3 [29]) was 53% and the IC50 (A549 [30]) was 8 µM. It also gave an inhibition of growth at 30 µM (SF-295 [31]) of 20%, an inhibition of growth at 50 µM (HCT-15 [32]) of 66% and an inhibition of growth at 10 µM (HCT-15 [33]) of 46%. For the same compound, the inhibition of growth at 50 µM (A549 [34]) was 83%, the inhibition of growth at 10 µM (HEp-2 [35]) was 28% and the inhibition of growth at 30 µM (PC-3 [36]) was 40%.
